From patent US20110189174A1, “COMPOSITIONS AND METHODS FOR TREATING, REDUCING, AMELIORATING, ALLEVIATING, OR INHIBITING PROGRESSION OF, PATHOGENIC OCULAR NEOVASCULARIZATION” (priority 2010, published 2011)

Experiments:
[1] = test system: human retinal endothelial cells (HREC); assay: Testing 4: VEGF-induced HREC proliferation (MTS assay), Avastin with or without BOL-303050-X; format: cell-based; conditions: for HREC proliferation in the presence of VEGF, compound alone: VEGF 10 ng/ml, 3 days
Protocol: HREC were first cultured overnight in a 96-well plate coated with fibronectin. The next day, cells were serum-starved for 2 hours before treatment. […] The cells were then cultured at 37° C., 5% CO2, and 95% humidity for another 3 days.
A 96-well plate was coated with human fibronectin (10 μg/ml) at 37° C. for 5 h. HREC were collected from flasks by EDTA-trypsin treatment and re-suspended in 10% FBS CS-C medium at 18,000 cells/ml. Cells (200 μl/well) were added to the plate and cultured overnight at 37° C., 5% CO2, and 95% humidity. The next day, medium was aspirated and 200 μl/well serum-free medium was added for 2 h at 37° C., 5% CO2, and 95% humidity.
Normal IgG was added in such a way that all groups contained the same amount of IgG proteins. All medium solutions were incubated for 1 h at 37° C., 5% CO2, and 95% humidity. After carefully aspirating the medium from cells, 200 μl of the medium containing different agents were added into appropriate wells. The cells were further cultured for 3 days.
At the end of incubation, the medium was carefully aspirated from cells and 120 μl of MTS working solution was added into all wells including four blank wells (without cells). The plate was incubated at 37° C., 5% CO2, and 95% humidity for 1 hour and then read by a plate reader at 490 nm wavelength.
Median optical density (OD) was generated from different groups. Data were expressed as mean±SEM of the OD values. Statistical analysis was performed using two-way ANOVA followed by the contrast procedure after Box-Cox transformations if needed, and p<0.05 was considered statistically significant. […] All the data from the individual wells were fitted to a re-parameterized four-parameter logistic equation to obtain IC50 using similar methodology as that previously described and utilizing the statistical analysis software JMP (SAS Institute, Cary, N.C.).

[2] = Ocular clinical findings in rats 14 days after intravitreal injection
Protocol: The anterior segment of the eye was examined using a slit-lamp biomicroscopy for excluding any animals with abnormalities that might interfere with the study. Fundus photography and fluorescein angiography (FA) were performed to document the health of the retina and the ocular circulation using a TRC 50EX fundus camera (Topcon). For FA, 10% sodium fluorescein was injected intravenously (50 mg/kg of body weight) through the tail vein or the vein under the incisor before the procedure.
Immediately after placement of laser photocoagulation, the experimental eyes received an intravitreal injection of either a compound or a vehicle as described in Table 5. Following the disinfection of ocular surface with 5% betadine and 0.9% saline solutions, the injections were performed with aid of a surgical microscope using 0.3 mL syringes with a 31-gauge ½-inch long needle (Ultra-Fine II™ Insulin syringe, BD, Franklin Lakes, N.J.).
Two weeks after photocoagulation, all rats were examined under anesthesia and pupil dilation with slit-lamp biomicroscopy, fundus photography and FA as described in the baseline examination.

[3] = test system: human retinal endothelial cells (HREC); assay: PMA-induced HREC network formation in fibrin gel; format: cell-based; conditions: PMA 25 ng/mL, vs PMA control
Protocol: Prior to the start of the experiment, HREC from Cell Systems were cultured in flask in CS-C complete medium. The tube formation assay was performed in a 96-well plate pre-coated with fibrin gel. HREC were collected from flasks and re-suspended 1% FBS EBM-2 medium. Cells were pre-incubated with the integrin antagonists, echistatin or vehicle control for 30 min before loading onto the fibrin gel. Images were taken at 9 h.
Thrombin solution and fibrinogen solutions were allowed to thaw at room temperature and 37° C. water bath, respectively. Fibrinogen solution at 30 μL was added into the desired number of wells in a 96-well plate. Plate was gently shaken to ensure uniform coverage of fibrinogen solution in the well. Thrombin at 20 μL was added into each well. The plate was gently shaken immediately to ensure the thrombin was mixed well with fibrinogen. The plate was placed at 37° C. overnight to allow the fibrin gel to polymerize.
HREC were trypsinized at about 80% confluence and counted by standard hemocytometer methods. After deactivating trypsin with 5 mL of 10% FBS EBM-2 medium, the cells were centrifuged (800 rpm, 8 min) and re-suspended at 2×10^5 cells/mL in 1% FBS EBM-2 medium
Cells were pre-incubated with integrin compounds or echistatin at 37° C., 5% CO2, and 95% humidity for 30 minutes before mixing with PMA medium. The final concentrations of all agents are shown in the design table. The 100 μL of the cell mixture was added onto the gel and cells were cultured at 37° C., 5% CO2, and 95% humidity. Images were taken at different time points.
The network formation scoring system (a five point-scale)
Each well in one group was given a score and then averaged. Data were expressed as mean±SEM of network formation scores. Statistical analysis was performed using a one-way ANOVA-Dunnett's test in raw data, and p<0.05 was considered statistically significant. Data analysis was performed using statistical analysis software JMP (SAS Institute, Cary, N.C.).

[4] = Day 14, 200 μg/eye intravitreal

Compound	HREC proliferation in the presence of VEGF, compound alone ([1]; 1 nM)	HREC proliferation in the presence of VEGF, compound alone ([1]; 10 nM)	HREC proliferation under basal conditions ([1]; 1 and 10 nM tested, no VEGF)	Combination effect with Avastin on VEGF-induced HREC proliferation (synergistic/additive) ([1]; compound 1 nM, Avastin 30 to 300 ng/ml)	Combination effect with Avastin on VEGF-induced HREC proliferation (synergistic/additive) ([1]; compound 10 nM, Avastin at all doses)	Improvement of the potency of Avastin ([1]; compound at 1 and 10 nM)	Eyes with anterior chamber inflammation/Total eyes [2, 4]	Eyes with retinal vascular congestion/vessel-observable eyes [2, 4]	Intraocular inflammation and retinal vascular congestion ([2]; Day 14 after intravitreal injection)	Inhibition of PMA-induced HREC network formation in fibrin gel ([3]; 1 nM)	Inhibition of PMA-induced HREC network formation in fibrin gel ([3]; 10 nM)	Enhancement of Avastin potency ([1]; compound at 1 nM)	Enhancement of Avastin potency ([1]; compound at 10 nM)	Posterior synechiae of iris [2, 4]	Inhibition of VEGF-induced HREC proliferation by Avastin alone ([1]; 3-300 ng/ml, significant from 10 ng/ml)	IC50 of Avastin on VEGF-induced HREC proliferation ([1]; in the presence of BOL-303050-X 1 nM)	IC50 of Avastin on VEGF-induced HREC proliferation ([1]; in the presence of BOL-303050-X 10 nM)
COc1ccc(S(=O)(=O)N[C@@H](CNc2nc(C)nc(N3CCC(c4ccc5c(n4)NCCC5)CC3)c2C)C(=O)O)cc1 [BOL-303050-X]	significantly reduced	significantly reduced	significant effects were only observed at 10 nM	synergistic effects	additive effect	6- to 7 fold	0/6	0/5	Neither inflammation nor retinal vascular congestion was observed	significantly inhibited	significantly inhibited	–	–	–	–	–	–
COc1c(NC[C@H](NC(=O)OCc2ccccc2)C(=O)O)ncnc1N1CCC(c2ccc3c(n2)NCCC3)CC1 [BOL-303054-X]	–	–	–	–	–	–	4/6	4/5	–	not statistically significant	not statistically significant	–	–	–	–	–	–
CCc1nc(NC[C@H](NC(=O)OCc2ccccc2)C(=O)O)c(C)c(N2CCC(c3ccc4c(n3)NCCC4)CC2)n1 [BOL-303055-X]	–	–	–	–	–	–	5/6	2/2	–	–	significantly inhibited	approximately 6 fold	~7 fold	Posterior synechiae of iris occurred in several eyes	–	–	–
bevacizumab [Avastin, reference compound]	–	–	–	–	–	–	–	–	–	–	–	–	–	–	dose-dependent inhibition	0.015 µg/mL	0.013 µg/mL
